Laboratory results reported in US10758534B2 (Vertex Pharmaceuticals Incorporated, priority 2014, dated 2020).
Where two headings read alike, the source gives them in different places.

Molecular target: T1, F508del (Homo sapiens, UniProt P13569, DEL508-508)
T1 construct: expressed in transfected cells
Test: Protocol 2: FRET membrane potential optical assay (VIPR), identification of correction compounds
Type: cell-based
Outline: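 Correction of the F508del trafficking defect is scored as forskolin (10 μM)/genistein (20 μM)-stimulated Cl^− efflux in NIH3T3 mouse fibroblasts after a 16 hr, 37° C. compound exposure. Depolarization was followed optically using voltage-sensing FRET dyes.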

[1] = Table 3, compounds of Table 1 as modulators of CFTR activity, protocol not stated
[2] = F508del CFTR modulator activity, compounds of Table 1, read-out: EC30

T1 sequence (P13569 with tags, fused parts or gaps DEL508-508): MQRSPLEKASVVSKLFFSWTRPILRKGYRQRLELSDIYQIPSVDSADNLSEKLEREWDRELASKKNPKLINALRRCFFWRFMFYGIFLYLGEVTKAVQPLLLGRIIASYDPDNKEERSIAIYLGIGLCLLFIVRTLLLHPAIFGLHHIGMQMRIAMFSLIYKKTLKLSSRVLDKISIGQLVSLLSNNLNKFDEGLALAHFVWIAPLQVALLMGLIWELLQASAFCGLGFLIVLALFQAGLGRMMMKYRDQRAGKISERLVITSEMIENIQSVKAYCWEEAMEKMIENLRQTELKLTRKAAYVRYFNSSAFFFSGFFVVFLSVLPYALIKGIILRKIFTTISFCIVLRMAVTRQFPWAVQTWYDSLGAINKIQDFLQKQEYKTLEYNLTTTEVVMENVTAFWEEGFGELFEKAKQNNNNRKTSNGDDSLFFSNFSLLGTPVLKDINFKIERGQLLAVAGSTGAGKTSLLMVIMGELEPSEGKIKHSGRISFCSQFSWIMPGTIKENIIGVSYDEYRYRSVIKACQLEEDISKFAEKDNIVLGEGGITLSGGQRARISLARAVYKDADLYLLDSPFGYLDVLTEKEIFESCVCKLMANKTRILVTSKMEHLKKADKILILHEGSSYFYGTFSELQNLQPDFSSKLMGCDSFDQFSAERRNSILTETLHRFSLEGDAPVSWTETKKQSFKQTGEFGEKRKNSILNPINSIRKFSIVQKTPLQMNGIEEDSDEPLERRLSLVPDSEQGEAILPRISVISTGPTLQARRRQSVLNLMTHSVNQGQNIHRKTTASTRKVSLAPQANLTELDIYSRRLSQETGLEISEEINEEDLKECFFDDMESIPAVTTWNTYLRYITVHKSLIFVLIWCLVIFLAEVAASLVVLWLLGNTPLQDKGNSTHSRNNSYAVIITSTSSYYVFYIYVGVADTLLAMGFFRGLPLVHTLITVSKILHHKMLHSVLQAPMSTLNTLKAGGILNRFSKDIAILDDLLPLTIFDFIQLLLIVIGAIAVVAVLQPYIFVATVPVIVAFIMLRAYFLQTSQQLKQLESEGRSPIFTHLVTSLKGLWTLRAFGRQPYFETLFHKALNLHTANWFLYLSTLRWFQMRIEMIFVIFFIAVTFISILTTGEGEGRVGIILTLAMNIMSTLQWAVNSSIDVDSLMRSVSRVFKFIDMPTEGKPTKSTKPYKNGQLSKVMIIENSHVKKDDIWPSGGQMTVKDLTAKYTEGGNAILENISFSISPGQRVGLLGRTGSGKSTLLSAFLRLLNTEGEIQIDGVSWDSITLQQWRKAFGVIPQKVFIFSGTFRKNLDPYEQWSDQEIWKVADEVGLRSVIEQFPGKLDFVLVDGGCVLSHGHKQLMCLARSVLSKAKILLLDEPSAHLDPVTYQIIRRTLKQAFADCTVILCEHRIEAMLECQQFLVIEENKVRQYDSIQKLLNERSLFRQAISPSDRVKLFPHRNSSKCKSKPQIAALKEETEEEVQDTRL

EC30 [1] | EC30 [2] [nM] | Compound | also measured
 | < 3000 | CC1CN(c2ncccc2C(=O)NS(=O)(=O)c2cccc(N3CCc4ccccc4C3)n2)C(C)(C)C1 (stereo not drawn) [Compound 2098, N—[[6-(3,4-dihydro-1H-isoquinolin-2-yl)-2-pyridyl]sulfonyl]-2-(2,2,4-trimethylpyrrolidin-1-yl)pyridine-3-carboxamide] | 
 | < 3000 | C[C@@H]1CN(c2nc(-c3ccccc3Cl)ccc2C(=O)NS(=O)(=O)c2cccnc2N)C(C)(C)C1 [Compound 2066, N-[(2-amino-3-pyridyl)sulfonyl]-6-(2-chlorophenyl)-2-[(4S)-2,2,4-trimethylpyrrolidin-1-yl]pyridine-3-carboxamide] | 
 | < 3000 | CCOC(=O)c1ccc(OC)c(-c2cnc(N3CC(C)CC3(C)C)c(C(=O)NS(=O)(=O)c3cccc(N)n3)c2)c1 (stereo not drawn) [Compound 2134, ethyl 3-[5-[(6-amino-2-pyridyl)sulfonylcarbamoyl]-6-(2,2,4-trimethylpyrrolidin-1-yl)-3-pyridyl]-4-methoxy-benzoate] | 
 | 3000 to 10000 | CC(C)Cn1ccc(-c2cnc(N3CC(C)CC3(C)C)c(C(=O)NS(=O)(=O)c3cccc(N)n3)c2)n1 (stereo not drawn) [Compound 2303, N-[(6-amino-2-pyridyl)sulfonyl]-5-(1-isobutylpyrazol-3-yl)-2-(2,2,4-trimethylpyrrolidin-1-yl)pyridine-3-carboxamide] | 
 | < 3000 | CC1CN(c2ncccc2C(=O)NS(=O)(=O)c2cccc(N3CCc4cc(Cl)ccc43)n2)C(C)(C)C1 (stereo not drawn) [Compound 2385, N—[[6-(5-chloroindolin-1-yl)-2-pyridyl]sulfonyl]-2-(2,2,4-trimethylpyrrolidin-1-yl)pyridine-3-carboxamide] | 
 | < 3000 | CC1CN(c2ncccc2C(=O)NS(=O)(=O)c2cccc(Oc3ccc4nonc4c3)n2)C(C)(C)C1 (stereo not drawn) [Compound 2727] | 
 | < 3000 | CCOc1cc(F)cc(-c2ccc(C(=O)NS(=O)(=O)c3ccc[nH]c3=O)c(N3C[C@@H](C)CC3(C)C)n2)c1 [Compound 2278, 6-(3-ethoxy-5-fluoro-phenyl)-N-[(2-oxo-1H-pyridin-3-yl)sulfonyl]-2-[(4S)-2,2,4-trimethylpyrrolidin-1-yl]pyridine-3-carboxamide] | 
 | < 3000 | CC1CN(c2ncccc2C(=O)NS(=O)(=O)c2cccc(NCc3cccc(Cl)c3)n2)C(C)(C)C1 (stereo not drawn) [Compound 2064, N—[[6-[(3-chlorophenyl)methylamino]-2-pyridyl]sulfonyl]-2-(2,2,4-trimethylpyrrolidin-1-yl)pyridine-3-carboxamide] | 
 | < 3000 | CC1CN(c2ncc(-c3cccc(Cl)c3)cc2C(=O)NS(=O)(=O)c2cccc(N)n2)C(C)(C)C1 (stereo not drawn) [Compound 2429, N-[(6-amino-2-pyridyl)sulfonyl]-5-(3-chlorophenyl)-2-(2,2,4-trimethylpyrrolidin-1-yl)pyridine-3-carboxamide] | 
 | < 3000 | CC1CC=C(c2cnc(N3CC(C)CC3(C)C)c(C(=O)NS(=O)(=O)c3cccc(N)n3)c2)CC1 (stereo not drawn) [Compound 2361, N-[(6-amino-2-pyridyl)sulfonyl]-5-(4-methylcyclohexen-1-yl)-2-(2,2,4-trimethylpyrrolidin-1-yl)pyridine-3-carboxamide] | 
 | < 3000 | COc1cc(F)ccc1-c1ccc(C(=O)NS(=O)(=O)c2cccnc2N)c(N2C[C@@H](C)CC2(C)C)n1 [Compound 2482, N-[(2-amino-3-pyridyl)sulfonyl]-6-(4-fluoro-2-methoxy-phenyl)-2-[(4S)-2,2,4-trimethylpyrrolidin-1-yl]pyridine-3-carboxamide] | 
 | < 3000 | CC1CN(c2ncc(-c3ccc(C#N)cc3)cc2C(=O)NS(=O)(=O)c2cccc(N)n2)C(C)(C)C1 (stereo not drawn) [Compound 2304, N-[(6-amino-2-pyridyl)sulfonyl]-5-(4-cyanophenyl)-2-(2,2,4-trimethylpyrrolidin-1-yl)pyridine-3-carboxamide] | 
 | 3000 to 10000 | C[C@@H]1CN(c2nc(C3CC(C)(C)CCC3O)ccc2C(=O)NS(=O)(=O)c2cccnc2N)C(C)(C)C1 (stereo partly drawn) [Compound 2047, N-[(2-amino-3-pyridyl)sulfonyl]-6-(2-hydroxy-5,5-dimethyl-cyclohexyl)-2-[(4S)-2,2,4-trimethylpyrrolidin-1-yl]pyridine-3-carboxamide] | 

Further lines, the compound ahead of its results:

Compound | EC30 [1] | EC30 [2] [nM] | also measured
C[C@@H]1CC[C@H](C)N1c1nc(-c2ccccc2)ccc1C(=O)NS(=O)(=O)c1ccc[nH]c1=O [Compound 660, 2-[(2S,5R)-2,5-dimethylpyrrolidin-1-yl]-N-[(2-oxo-1H-pyridin-3-yl)sulfonyl]-6-phenyl-pyridine-3-carboxamide] | + (“+” means greater than 10 uM) |  | 
Cc1cc(C)c(Oc2nc(CCc3ccccc3)ccc2C(=O)NS(=O)(=O)c2cccc(N)n2)c(C)c1 [Compound 268, N-[(6-amino-2-pyridyl)sulfonyl]-6-phenethyl-2-(2,4,6-trimethylphenoxy)pyridine-3-carboxamide] | +++ (“+++” means <3 uM) |  | 
CC(C)COc1cc(F)cc(-c2ccc(C(=O)NS(=O)(=O)c3cccc(N)n3)c(N3CCCC3Cc3ccccc3)n2)c1 (stereo not drawn) [Compound 772, N-[(6-amino-2-pyridyl)sulfonyl]-2-(2-benzylpyrrolidin-1-yl)-6-(3-fluoro-5-isobutoxy-phenyl)pyridine-3-carboxamide] | +++ (“+++” means <3 uM) |  | 
CC(C)Oc1ccc(-c2ccc(C(=O)NS(=O)(=O)c3ccc[nH]c3=O)c(N3C[C@H](C)CC3(C)C)n2)cn1 [Compound 403, 6-(6-isopropoxy-3-pyridyl)-N-[(2-oxo-1H-pyridin-3-yl)sulfonyl]-2-[(4R)-2,2,4-trimethylpyrrolidin-1-yl]pyridine-3-carboxamide] | ++ (“++” means between 3 uM and 10 uM) |  | 
Cc1cc(C)c(Oc2nc3c(cc2C(=O)NS(=O)(=O)c2cccc(N)n2)CCCC3)c(C)c1 [Compound 285, N-[(6-amino-2-pyridyl)sulfonyl]-2-(2,4,6-trimethylphenoxy)-5,6,7,8-tetrahydroquinoline-3-carboxamide] | +++ (“+++” means <3 uM) |  | 
Cn1ccc2c(Cn3nc(C(C)(C)C)cc3C(=O)NS(=O)(=O)c3ccccc3)cccc21 [Compound 245, N-(benzenesulfonyl)-5-tert-butyl-2-[(1-methylindol-4-yl)methyl]pyrazole-3-carboxamide] | ++ (“++” means between 3 uM and 10 uM) |  | 
CC(C)COc1cc(F)cc(-c2ccc(C(=O)NS(=O)(=O)c3cccc(N)n3)c(N3CC4CC4C3C(F)(F)F)n2)c1 (stereo not drawn) [Compound 490, N-[(6-amino-2-pyridyl)sulfonyl]-6-(3-fluoro-5-isobutoxy-phenyl)-2-[4-(trifluoromethyl)-3-azabicyclo[3.1.0]hexan-3-yl]pyridine-3-carboxamide] | +++ (“+++” means <3 uM) |  | 
Cc1cc(C)c(Oc2nc(C)ccc2C(=O)NS(=O)(=O)c2cccc(N)c2)c(C)c1 [Compound 13, N-(3-aminophenyl)sulfonyl-6-methyl-2-(2,4,6-trimethylphenoxy)pyridine-3-carboxamide] | ++ (“++” means between 3 uM and 10 uM) |  | 
CC[C@@H](C)Oc1ccn(-c2ccc(C(=O)NS(=O)(=O)c3cccnc3N)c(N3C[C@@H](C)CC3(C)C)n2)n1 [Compound 2705] |  |  | EC30 (F508del CFTR modulator activity, compounds of Table 1): +++ (“+++” means <3 uM)
CC(C)COc1cc(F)cc(-c2ccc(C(=O)NS(=O)(=O)c3cccc(N)n3)c(C3CC(C)(C)CC3(C)C)n2)c1 (single isomer, unassigned) [Compound 2374, N-[(6-amino-2-pyridyl)sulfonyl]-6-(3-fluoro-5-isobutoxy-phenyl)-2-(2,2,4,4-tetramethylcyclopentyl)pyridine-3-carboxamide] |  | < 3000 | 
CC(C)COc1cc(F)cc(-c2ccc(C(=O)NS(=O)(=O)c3cccc(N)n3)c(N3C[C@H](C)C[C@H](C)C3)n2)c1 [Compound 371, N-[(6-amino-2-pyridyl)sulfonyl]-2-[(3R,5S)-3,5-dimethyl-1-piperidyl]-6-(3-fluoro-5-isobutoxy-phenyl)pyridine-3-carboxamide] | +++ (“+++” means <3 uM) |  | 
CC(C)COc1ccn(-c2ccc(C(=O)NS(=O)(=O)c3cccnc3N)c(N3CC(C)CC34CCC4)n2)n1 (single isomer, unassigned) [Compound 2194, N-[(2-amino-3-pyridyl)sulfonyl]-6-(3-isobutoxypyrazol-1-yl)-2-(6-methyl-8-azaspiro[3.4]octan-8-yl)pyridine-3-carboxamide] |  | < 3000 | 
CC(C)Oc1ccc(-c2ccc(C(=O)NS(=O)(=O)c3cccc(N)n3)c(N3CCCC3C(C)(C)C)n2)cn1 (stereo not drawn) [Compound 597, N-[(6-amino-2-pyridyl)sulfonyl]-2-(2-tert-butylpyrrolidin-1-yl)-6-(6-isopropoxy-3-pyridyl)pyridine-3-carboxamide] | +++ (“+++” means <3 uM) |  | 
Cc1cc(C)c(Cn2c(C(=O)NS(=O)(=O)c3ccccc3)cc3c(Cl)cccc32)c(C)c1 [Compound 127, N-(benzenesulfonyl)-4-chloro-1-[(2,4,6-trimethylphenyl)methyl]indole-2-carboxamide] | +++ (“+++” means <3 uM) |  | 
COc1ncccc1S(=O)(=O)NC(=O)C1c2ccccc2CN1Cc1c(C)cc(C)cc1C (stereo not drawn) [Compound 218, N-[(2-methoxy-3-pyridyl)sulfonyl]-2-[(2,4,6-trimethylphenyl)methyl]isoindoline-1-carboxamide] | ++ (“++” means between 3 uM and 10 uM) |  | 
Cc1cc(C)c(Oc2nc(-c3ccc(C)c(O)c3)ccc2C(=O)NS(=O)(=O)c2cccc(N)n2)c(C)c1 [Compound 793, N-[(6-amino-2-pyridyl)sulfonyl]-6-(3-hydroxy-4-methyl-phenyl)-2-(2,4,6-trimethylphenoxy)pyridine-3-carboxamide] | +++ (“+++” means <3 uM) |  | 
CC(C)COc1cc(F)cc(-c2ccc(C(=O)NS(=O)(=O)c3cccc(N)n3)c(N3CCCC3C)n2)c1 (stereo not drawn) [Compound 479, N-[(6-amino-2-pyridyl)sulfonyl]-6-(3-fluoro-5-isobutoxy-phenyl)-2-(2-methylpyrrolidin-1-yl)pyridine-3-carboxamide] | +++ (“+++” means <3 uM) |  | 
